Laboratory results published in the NIST ThermoML archive (doi:10.1021/je300953u).
Numbers after ± are expanded uncertainties.

Assay: mn = molality of the nth substance listed, in mol/kg
Conditions: 101 kPa, Liquid, Vibrating tube method

mass density (298.15 K, m1 = 0.025): 998.38 ± 0.29 kg/m3
mass density (298.15 K, m1 = 0.055): 999.96 ± 0.29 kg/m3
mass density (308.15 K, m1 = 0.025): 995.33 ± 0.29 kg/m3
mass density (308.15 K, m1 = 0.055): 996.89 ± 0.29 kg/m3
Compound: CCn1cc[n+](C)c1.[Br-] [1-ethyl-3-methylimidazolium bromide] + O
